Assay: log P by HPLC
Type: physicochemical
Details: EEC directive 79/831 Annex V. A8 by HPLC (gradient method, acetonitrile/0.1% aqueous phosphoric acid)

**Q.** With `Clc1ccccc1-c1c(Cl)nc2nc(C3CC3)nn2c1N1CCCCN1` [compound 488] as the compound, how does the logP read?
**A.** 3.39

**Q.** Which logP does the source give for `C=C(C)CN(CC)c1c(-c2ccc(F)cc2F)c(Cl)nc2nc(C3CC3)nn12` [compound 491] here?
**A.** 4.37

**Q.** Which logP does the source give for `CC(C)CNc1c(-c2ccccc2Cl)c(Cl)nc2nc(C3CC3)nn12` [compound 492] here?
**A.** 3.76

**Q.** For `Clc1ccccc1-c1c(Cl)nc2nc(C3CC3)nn2c1N1CCCCC1` [compound 493], which logP is on record?
**A.** 4.27

**Q.** For `CCC(C)Nc1c(-c2ccccc2Cl)c(Cl)nc2nc(C3CC3)nn12` (stereo not drawn) [compound 494], which logP is on record?
**A.** 3.76

**Q.** Which logP does the source give for `C=C(C)CNc1c(-c2ccccc2Cl)c(Cl)nc2nc(C3CC3)nn12` [compound 495] here?
**A.** 3.41

**Q.** For `C=C(C)CN(C)c1c(-c2ccccc2Cl)c(Cl)nc2nc(C3CC3)nn12` [compound 496], which logP is on record?
**A.** 4.32

**Q.** With `CC(C)CN(C)c1c(-c2ccccc2Cl)c(Cl)nc2nc(C3CC3)nn12` [compound 497] as the compound, how does the logP read?
**A.** 4.41

**Q.** With `CC1CCCN1c1c(-c2ccccc2Cl)c(Cl)nc2nc(C3CC3)nn12` (stereo not drawn) [compound 498] as the compound, how does the logP read?
**A.** 3.99

**Q.** Which logP does the source give for `CC1CCCCN1c1c(-c2ccccc2Cl)c(Cl)nc2nc(C3CC3)nn12` (stereo not drawn) [compound 499] here?
**A.** 4.61

**Q.** Which logP does the source give for `FC(F)(F)CNc1c(-c2ccccc2Cl)c(Cl)nc2nc(C3CC3)nn12` [compound 500] here?
**A.** 3.22

**Q.** Which logP does the source give for `FC(F)(F)C1CCCN1c1c(-c2ccccc2Cl)c(Cl)nc2nc(C3CC3)nn12` (stereo not drawn) [compound 501] here?
**A.** 4.41

**Q.** For `Cc1nc2nc(Cl)c(-c3c(F)cc(F)cc3F)c(N(C)CC3CC3(Cl)Cl)n2n1` (stereo not drawn) [compound 502], which logP is on record?
**A.** 3.68

**Q.** Which logP does the source give for `CC(C)Nc1c(-c2ccc(F)cc2Cl)c(Cl)nc2nc(C3CC3)nn12` [compound 503] here?
**A.** 3.5

**Q.** For `Fc1ccc(-c2c(Cl)nc3nc(C4CC4)nn3c2N2CCCCN2)c(Cl)c1` [compound 504], which logP is on record?
**A.** 3.58

**Q.** Which logP does the source give for `Cc1nc2nc(Cl)c(-c3c(F)cc(F)cc3F)c(NC(C)C(C)C)n2n1` (stereo not drawn) [compound 506] here?
**A.** 3.35

**Q.** With `CN(CC1CC1(Cl)Cl)c1c(-c2ccc(F)cc2F)c(Cl)nc2nc(C3CC3)nn12` (stereo not drawn) [compound 507] as the compound, how does the logP read?
**A.** 4.18

**Q.** With `CN(CC1CC1(Cl)Cl)c1c(-c2ccccc2Cl)c(Cl)nc2nc(C3CC3)nn12` (stereo not drawn) [compound 508] as the compound, how does the logP read?
**A.** 4.29

**Q.** For `CN(CC1CC1(Cl)Cl)c1c(-c2c(F)cc(F)cc2F)c(Cl)nc2nc(C3CC3)nn12` (stereo not drawn) [compound 509], which logP is on record?
**A.** 4.26

**Q.** For `CCC1=CCN(c2c(-c3ccc(F)cc3F)c(Cl)nc3nc(C4CC4)nn23)CC1` [compound 511], which logP is on record?
**A.** 4.59

**Q.** With `CC1=CCCN(c2c(-c3ccc(F)cc3F)c(Cl)nc3nc(C4CC4)nn23)C1` [compound 512] as the compound, how does the logP read?
**A.** 4.14

**Q.** For `Fc1ccc(-c2c(Cl)nc3nc(C4CC4)nn3c2N2CCC(F)CC2)c(F)c1` [compound 513], which logP is on record?
**A.** 3.45

**Q.** For `CC(C)(C)OC(=O)NC1CCN(c2c(-c3ccc(F)cc3F)c(Cl)nc3nc(C4CC4)nn23)CC1` [compound 514], which logP is on record?
**A.** 3.78

**Q.** For `Fc1ccc(-c2c(Cl)nc3nc(C4CC4)nn3c2N2CCC(C(F)(F)F)CC2)c(F)c1` [compound 515], which logP is on record?
**A.** 4.07

**Q.** Which logP does the source give for `CC(=O)NC1CCN(c2c(-c3ccc(F)cc3F)c(Cl)nc3nc(C4CC4)nn23)CC1` [compound 516] here?
**A.** 2.2

**Q.** Which logP does the source give for `Fc1ccc(-c2c(Cl)nc3nc(C4CC4)nn3c2N2CCCCC2)c(F)c1` [compound 517] here?
**A.** 4.03

**Q.** Which logP does the source give for `Fc1ccc(-c2c(Cl)nc3nc(C4CC4)nn3c2N2CCOCC2)c(F)c1` [compound 518] here?
**A.** 2.85

**Q.** Which logP does the source give for `Fc1ccc(-c2c(Cl)nc3nc(C4CC4)nn3c2N2CCSCC2)c(F)c1` [compound 519] here?
**A.** 3.58

**Q.** For `Cc1ccc(Nc2c(-c3ccc(F)cc3F)c(Cl)nc3nc(C4CC4)nn23)cc1` [compound 521], which logP is on record?
**A.** 3.6

**Q.** For `Fc1ccc(-c2c(Cl)nc3nc(C4CC4)nn3c2N2CCc3ccccc3C2)c(F)c1` [compound 522], which logP is on record?
**A.** 3.87

**Q.** For `Cc1nc2nc(Cl)c(-c3c(F)cc(F)cc3F)c(NC(C)C(C)C)n2n1` (stereo not drawn) [compound 523], which logP is on record?
**A.** 3.38

Same assay, conditions: HPLC, gradient method, acetonitrile/0.1% aqueous phosphoric acid; EEC directive 79/831 Annex V. A8

**Q.** With `Cc1nc2nc(Cl)c(-c3c(F)cccc3F)c(N3CCCCO3)n2n1` [compound 524] as the compound, how does the logP read?
**A.** 2.84

**Q.** For `CC(C)CNc1c(-c2ccc(F)cc2F)c(Cl)nc2nc(C(F)(F)F)nn12` [compound 525], which logP is on record?
**A.** 4.03

Source: patent publication US7186831B2, “5-halo-2-alkyl[1,2,4]triazolo[1,5-a]pyrimidin-7-amines” (priority 2001, dated 2007)
